Data set [1] concerns Salmonella typhimurium. As to the kind of experiment: Mutagenicity in Salmonella typhimurium TA100 at 0.625 mg/ml after 48 hrs by Ames MPF assay in presence of Sprague-Dawley rat liver S9 fraction. The class given is toxicity, organism-based. Particulars: salmonella enterica subsp. enterica serovar typhimurium, s9, 48 h. (The Ames test uses bacterial strains that need an amino acid and regain growth without it when mutated back.)

Another data set relates to [Candida] zeylanoides. As to the kind of experiment: Antifungal activity against Candida zeylanoides NRLL Y-1774 after 48 hrs by broth microdilution method. The class given is functional. Particulars: Dujonia zeylanoides, NRLL Y-1774, 48 h. (In general: In broth dilution the organism is exposed to a series of concentrations in liquid medium.)
Data set [2] can be described thus: Genotoxicity in Salmonella typhimurium TA1535/pSK1002 assessed as induction ratio at 2.5 mg/ml after 2 hrs by umuC assay in presence of Sprague-Dawley rat liver S9 fraction. The settings on record: salmonella enterica subsp. enterica serovar typhimurium. The class given is toxicity, organism-based.
Data set [3] is described as follows: Genotoxicity in Salmonella typhimurium TA1535/pSK1002 assessed as induction ratio at 0.3125 mg/ml after 2 hrs by umuC assay in presence of Sprague-Dawley rat liver S9 fraction. The class given is toxicity, organism-based. The settings on record: salmonella enterica subsp. enterica serovar typhimurium.
The nature of data set [4]: Genotoxicity in Salmonella typhimurium TA1535/pSK1002 assessed as induction ratio at 2.5 mg/ml after 2 hrs by umuC assay in absence of Sprague-Dawley rat liver S9 fraction. The settings on record: salmonella enterica subsp. enterica serovar typhimurium. The class given is toxicity, organism-based.
The test system of data set [5] is Salmonella typhimurium. Briefly: Genotoxicity in Salmonella typhimurium TA1535/pSK1002 assessed as growth factor at 2.5 mg/ml after 2 hrs by umuC assay in absence of Sprague-Dawley rat liver S9 fraction. The settings on record: salmonella enterica subsp. enterica serovar typhimurium. The class given is toxicity, organism-based.
Data set [6] can be described thus: Genotoxicity in Salmonella typhimurium TA1535/pSK1002 assessed as induction ratio at 5 mg/ml after 2 hrs by umuC assay in absence of Sprague-Dawley rat liver S9 fraction. The class given is toxicity, organism-based. The settings on record: salmonella enterica subsp. enterica serovar typhimurium.
Another data set relates to Fusarium solani. Briefly: Antifungal activity against Fusarium solani NRRL-13414 after 72 hrs by broth microdilution method. The class given is functional. The settings on record: NRRL-13414, 72 h.
Another data set relates to Aspergillus flavus. Briefly: Antifungal activity against Aspergillus flavus NRRL-980 after 72 hrs by broth microdilution method. The class given is functional. Particulars: NRRL-980, 72 h.
The subject of the next data set is Candida parapsilosis. As to the kind of experiment: Antifungal activity against Candida parapsilosis NRLL Y-12696 after 48 hrs by broth microdilution method. Particulars: Lodderomyces parapsilosis, NRLL Y-12696, 48 h. The class given is functional.
In data set [7] the test system is Salmonella typhimurium. As to the kind of experiment: Genotoxicity in Salmonella typhimurium TA1535/pSK1002 assessed as growth factor at 0.3125 mg/ml after 2 hrs by umuC assay in presence of Sprague-Dawley rat liver S9 fraction. The settings on record: salmonella enterica subsp. enterica serovar typhimurium, s9, 2 h. The class given is toxicity, organism-based.

Data set [8] relates to Salmonella typhimurium. As to the kind of experiment: Mutagenicity in Salmonella typhimurium TA100 at 0.156 mg/ml after 48 hrs by Ames MPF assay in presence of Sprague-Dawley rat liver S9 fraction. The class given is toxicity, organism-based. The settings on record: salmonella enterica subsp. enterica serovar typhimurium, s9, 48 h.
Data set [9] concerns Salmonella typhimurium. As to the kind of experiment: Mutagenicity in Salmonella typhimurium TA100 at 5 mg/ml after 48 hrs by Ames MPF assay in presence of Sprague-Dawley rat liver S9 fraction. Particulars: salmonella enterica subsp. enterica serovar typhimurium, s9, 48 h. The class given is toxicity, organism-based.
Data set [10] deals with Salmonella typhimurium. Briefly: Mutagenicity in Salmonella typhimurium TA100 at 0.3125 mg/ml after 48 hrs by Ames MPF assay in presence of Sprague-Dawley rat liver S9 fraction. The class given is toxicity, organism-based. The settings on record: salmonella enterica subsp. enterica serovar typhimurium, s9, 48 h.
The test system of data set [11] is Salmonella typhimurium. As to the kind of experiment: Mutagenicity in Salmonella typhimurium TA100 at 0.156 mg/ml after 48 hrs by Ames MPF assay in absence of Sprague-Dawley rat liver S9 fraction. The class given is toxicity, organism-based. The settings on record: salmonella enterica subsp. enterica serovar typhimurium.
In data set [12] the test system is Salmonella typhimurium. Briefly: Mutagenicity in Salmonella typhimurium TA100 at 1.25 mg/ml after 48 hrs by Ames MPF assay in absence of Sprague-Dawley rat liver S9 fraction. The class given is toxicity, organism-based. The settings on record: salmonella enterica subsp. enterica serovar typhimurium.
Another data set deals with Pichia kudriavzevii. Briefly: Antifungal activity against Candida krusei NRLL Y-7179 after 48 hrs by broth microdilution method. The class given is functional. The settings on record: NRLL Y-7179, 48 h.
In the next data set the test system is Nakaseomyces glabratus. As to the kind of experiment: Antifungal activity against clinical isolate Candida glabrata after 48 hrs by broth microdilution method. The class given is functional.
A short description of data set [13]: Genotoxicity in Salmonella typhimurium TA1535/pSK1002 assessed as induction ratio at 0.156 mg/ml after 2 hrs by umuC assay in presence of Sprague-Dawley rat liver S9 fraction. The class given is toxicity, organism-based. Particulars: salmonella enterica subsp. enterica serovar typhimurium.
A short description of data set [14]: Genotoxicity in Salmonella typhimurium TA1535/pSK1002 assessed as induction ratio at 0.625 mg/ml after 2 hrs by umuC assay in presence of Sprague-Dawley rat liver S9 fraction. The class given is toxicity, organism-based. The settings on record: salmonella enterica subsp. enterica serovar typhimurium.
The test system of data set [15] is Salmonella typhimurium. Briefly: Mutagenicity in Salmonella typhimurium TA100 at 5 mg/ml after 48 hrs by Ames MPF assay in absence of Sprague-Dawley rat liver S9 fraction. The class given is toxicity, organism-based. Particulars: salmonella enterica subsp. enterica serovar typhimurium.
The test system of data set [16] is Salmonella typhimurium. As to the kind of experiment: Genotoxicity in Salmonella typhimurium TA1535/pSK1002 assessed as growth factor at 0.625 mg/ml after 2 hrs by umuC assay in presence of Sprague-Dawley rat liver S9 fraction. The class given is toxicity, organism-based. The settings on record: salmonella enterica subsp. enterica serovar typhimurium, s9, 2 h.

Data set [17] has as its system Salmonella typhimurium. As to the kind of experiment: Mutagenicity in Salmonella typhimurium TA98 at 5 mg/ml after 48 hrs by Ames MPF assay in absence of Sprague-Dawley rat liver S9 fraction. The class given is toxicity, organism-based. The settings on record: salmonella enterica subsp. enterica serovar typhimurium.
The nature of data set [18]: Genotoxicity in Salmonella typhimurium TA1535/pSK1002 assessed as induction ratio at 5 mg/ml after 2 hrs by umuC assay in presence of Sprague-Dawley rat liver S9 fraction. The class given is toxicity, organism-based. The settings on record: salmonella enterica subsp. enterica serovar typhimurium.

Values after ≈ are worked out from the molar mass of the structure shown.

The MIC is the lowest concentration that inhibits growth of the organism. As usually defined, the fold induction is the signal under treatment as a multiple of the control signal.

As for `Fc1cccc(/C=N/NC(=S)Nc2cccc3ccccc23)c1F`, the “fold change (FC)” value in the data set with Salmonella typhimurium [1] came out at 0.92; in the data set on Salmonella typhimurium [8], 1.02; in the data set on Salmonella typhimurium [9], 1.02; in the data set on Salmonella typhimurium [10] it was 1.07; in the data set on Salmonella typhimurium [11] it was 0.48; in the data set with Salmonella typhimurium [12], 0.42. Besides, the “fold change (FC)” value in the data set on Salmonella typhimurium [15] came to 0.42; with Salmonella typhimurium [17], 0.34. In addition, the MIC in data set [Candida] zeylanoides came out at 250 µg/mL (≈ 732 µM); against Fusarium solani, 250 µg/mL (≈ 732 µM); against Aspergillus flavus, 250 µg/mL (≈ 732 µM); against Candida parapsilosis, 250 µg/mL (≈ 732 µM); against Pichia kudriavzevii it was 250 µg/mL (≈ 732 µM); against Nakaseomyces glabratus it was 125 µg/mL (≈ 366 µM). The fold induction at 2 h, 2.5 mg/ml was determined as 3.99 in [2] and 5.25 in data set [4]. For the same compound, the fold induction at 2 h, 0.3125 mg/ml in data set [3] turned out to be 2.81. The Activity is reported as 0.311 in the data set on Salmonella typhimurium [5], 0.121 in the data set on Salmonella typhimurium [7] and 0.236 in the data set on Salmonella typhimurium [16]. Moreover, the fold induction at 2 h, 5 mg/ml amounted to 1.55 in data set [6] and 1.46 in data set [18]. Besides, the fold induction at 2 h, 0.156 mg/ml in [13] was found to be 5.34. The fold induction at 2 h, 0.625 mg/ml in data set [14] is 1.39.

For `Fc1ccc(F)c(/C=N/NC(=S)Nc2cccc3ccccc23)c1`, the “fold change (FC)” value in the data set on Salmonella typhimurium [1] worked out at 0.44; in the data set on Salmonella typhimurium [8], 0.48; in the data set on Salmonella typhimurium [9], 0.78; in the data set on Salmonella typhimurium [10], 0.34; in the data set on Salmonella typhimurium [11], 0.6; in the data set with Salmonella typhimurium [12] it was 0.36. The “fold change (FC)” value in the data set with Salmonella typhimurium [15] was determined as 0.36; in the data set with Salmonella typhimurium [17], 0.17. For the same compound, the MIC was 250 µg/mL (≈ 732 µM) in data set [Candida] zeylanoides; 250 µg/mL (≈ 732 µM) against Fusarium solani; 250 µg/mL (≈ 732 µM) against Aspergillus flavus; 250 µg/mL (≈ 732 µM) against Candida parapsilosis; 250 µg/mL (≈ 732 µM) against Pichia kudriavzevii; 125 µg/mL (≈ 366 µM) in the data set on Nakaseomyces glabratus. Moreover, the fold induction at 2 h, 2.5 mg/ml in [2] was 1.39; in data set [4], 1.75. The fold induction at 2 h, 0.3125 mg/ml in data set [3] turned out to be 1.4. In addition, the figures for the Activity in the data set on Salmonella typhimurium [5], with Salmonella typhimurium [7] and in the data set with Salmonella typhimurium [16] were 0.137, 0.23 and 0.274, respectively. Also, the fold induction at 2 h, 5 mg/ml worked out at 1.63 in data set [6] and 1.42 in data set [18]. Besides, the fold induction at 2 h, 0.156 mg/ml in data set [13] came out at 1.5. In addition, in [14], the fold induction at 2 h, 0.625 mg/ml is 5.34.

Values taken from ChEMBL document CHEMBL3758081, “Synthesis and biological evaluation of new naphthalene substituted thiosemicarbazone derivatives as potent antifungal and anticancer agents” (Eur J Med Chem, 2016).
